According to the supplement of paper PMC10307832:

What was measured:
Assay in all cases: relative viability (nuclei count vs DMSO), 5 days (fraction); higher = more cells survive
Nelarabine + Phenformin = compound: COc1nc(N)nc2c1ncn2[C@@H]1O[C@H](CO)[C@@H](O)[C@@H]1O [Nelarabine] + N=C(N)NC(=N)NCCc1ccccc1 [Phenformin] (partner 250 µM)
Summary of the method: (§1)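 Each reported value is a median over duplicate plates. It expresses relative viability: treated-well nuclei count divided by vehicle-well nuclei count. Lung cancer cell lines in 1536-well plates were dosed by pin tool a day after seeding, alone with one drug or with a fixed anchor-drug dose plus five library-drug doses (not always all listed) in √10 steps, and nuclei were counted after 5 days.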

Nelarabine + Palbociclib = compound: COc1nc(N)nc2c1ncn2[C@@H]1O[C@H](CO)[C@@H](O)[C@@H]1O [Nelarabine] + CC(=O)c1c(C)c2cnc(Nc3ccc(N4CCNCC4)cn3)nc2n(C2CCCC2)c1=O [Palbociclib] (partner 0.5 µM)
Summary of the method: as §1

Nelarabine + Alpelisib = compound: COc1nc(N)nc2c1ncn2[C@@H]1O[C@H](CO)[C@@H](O)[C@@H]1O [Nelarabine] + Cc1nc(NC(=O)N2CCC[C@H]2C(N)=O)sc1-c1ccnc(C(C)(C)C(F)(F)F)c1 [Alpelisib] (partner 2 µM)
Summary of the method: as §1

Nelarabine + Tozasertib = compound: COc1nc(N)nc2c1ncn2[C@@H]1O[C@H](CO)[C@@H](O)[C@@H]1O [Nelarabine] + Cc1cc(Nc2cc(N3CCN(C)CC3)nc(Sc3ccc(NC(=O)C4CC4)cc3)n2)n[nH]1 [Tozasertib] (partner 0.1 µM)
Summary of the method: as §1

Cell Line | relative viability (Nelarabine + Phenformin; first compound 0.01 µM) | relative viability (Nelarabine + Phenformin; first compound 0.03162 µM) | relative viability (Nelarabine + Phenformin; first compound 0.1 µM) | relative viability (Nelarabine + Phenformin; first compound 0.3162 µM) | relative viability (Nelarabine + Phenformin; first compound 1 µM) | relative viability (Nelarabine + Palbociclib; first compound 0.01 µM) | relative viability (Nelarabine + Palbociclib; first compound 0.03162 µM) | relative viability (Nelarabine + Palbociclib; first compound 0.1 µM) | relative viability (Nelarabine + Palbociclib; first compound 0.3162 µM) | relative viability (Nelarabine + Palbociclib; first compound 1 µM) | relative viability (Nelarabine + Alpelisib; first compound 0.01 µM) | relative viability (Nelarabine + Alpelisib; first compound 0.03162 µM) | relative viability (Nelarabine + Alpelisib; first compound 0.1 µM) | relative viability (Nelarabine + Alpelisib; first compound 0.3162 µM) | relative viability (Nelarabine + Alpelisib; first compound 1 µM) | relative viability (Nelarabine + Tozasertib; first compound 0.01 µM) | relative viability (Nelarabine + Tozasertib; first compound 0.03162 µM) | relative viability (Nelarabine + Tozasertib; first compound 0.1 µM) | relative viability (Nelarabine + Tozasertib; first compound 0.3162 µM) | relative viability (Nelarabine + Tozasertib; first compound 1 µM)
HCC-366 | 0.644 | 0.602 | 0.663 | 0.585 | 0.589 | 0.632 | 0.272 | 0.473 | 0.453 | 0.416 | 0.468 | 0.267 | 0.308 | 0.517 | 0.47 | 0.0929 | 0.0947 | 0.0956 | 0.17 | 0.112
HCC-827 | 0.373 | 0.378 | 0.308 | 0.352 | 0.443 | 0.537 | 0.504 | 0.454 | 0.378 | 0.397 | 0.999 | 0.848 | 0.839 | 0.784 | 0.595 | 0.499 | 0.423 | 0.446 | 0.366 | 0.476
HOP-62 | 0.787 | 0.508 | 0.696 | 0.777 | 0.667 | 0.567 | 0.49 | 0.496 | 0.419 | 0.485 | 1.12 | 1.03 | 0.942 | 0.926 | 1.07 | 0.434 | 0.305 | 0.42 | 0.364 | 0.402
IA-LM |  |  |  |  |  |  |  |  |  |  | 0.928 | 0.957 | 0.789 | 0.871 | 0.826 |  |  |  |  | 
LC-2-ad | 0.618 | 0.613 | 0.637 | 0.54 | 0.536 | 0.525 | 0.495 | 0.475 | 0.544 | 0.522 | 0.959 | 0.825 | 0.937 | 0.734 | 0.928 | 0.464 | 0.418 | 0.414 | 0.468 | 0.439
LCLC-97TM1 | 0.506 | 0.446 | 0.339 | 0.426 | 0.42 |  |  | 0.299 | 0.229 | 0.265 | 0.277 | 0.211 | 0.216 | 0.212 | 0.26 | 0.259 | 0.148 | 0.192 | 0.2 | 0.234
LCLC-103H | 0.329 | 0.283 | 0.333 | 0.328 | 0.345 | 0.523 | 0.421 | 0.466 | 0.486 | 0.504 | 1.01 | 0.989 | 0.985 | 0.936 | 0.956 | 0.674 | 0.358 | 0.373 | 0.479 | 0.47
LK-2 | 0.433 |  | 0.236 | 0.387 | 0.472 | 1.04 |  | 0.772 | 0.835 | 0.684 | 1.58 |  | 1.13 | 1.12 | 1.04 | 0.172 |  | 0.161 | 0.147 | 0.156
LOU-NH91 | 0.49 | 0.782 | 0.741 | 0.768 | 0.751 | 0.576 | 0.47 | 0.524 | 0.618 | 0.578 | 0.74 | 0.704 | 0.661 | 0.706 | 0.738 | 0.787 | 0.675 | 0.675 | 0.673 | 0.653
